The record followed here is article PMC11378028 (RSC Advances, 2024).

≈ marks a conversion by molar mass, not a printed value.

The target in one assay is E. coli topoisomerase IV (Escherichia coli, UniProt P20083). Put plainly: topoisomerase IV relaxation plate assay. The class given is biochemical.
A further assay deals with E. coli DNA gyrase (Escherichia coli, UniProt P0AES6). Put plainly: DNA gyrase supercoiling plate assay. The class given is biochemical. The conditions noted are these: for IC50: IC50 E. coli gyrase, supercoiling assay; for remaining activity at 1 µM / remaining activity at 0.1 µM: read-out: RA (residual activity) E. coli gyrase.
Assay [1] concerns the target human DNA topoisomerase IIα (Homo sapiens, UniProt P11388). Put plainly: human DNA topoisomerase IIα inhibition. It is filed as biochemical. The note with it: read-out: RA (residual activity) Human topo IIα.
In another assay the test system is S. aureus ATCC 29213. Put plainly: MIC, broth microdilution. The class given is cell-based, Staphylococcus aureus. The conditions noted are these: Staphylococcus aureus, ATCC29213, read-out: MIC S. aureus ATCC 29213, broth microdilution.
Assay [2] deals with K. pneumoniae ATCC 700603. Description: MIC, broth microdilution. It is filed as cell-based. The conditions noted are these: Klebsiella pneumoniae, ATCC700603, read-out: MIC K. pneumoniae ATCC 700603.
In another assay the test system is K. aerogenes ATCC 13408. Description: MIC, broth microdilution. It is filed as cell-based. The conditions noted are these: Klebsiella aerogenes, ATCC13408, read-out: MIC K. aerogenes ATCC 13408.
The next assay has as its system A. baumannii ATCC 19606. Description: MIC, broth microdilution. The class given is cell-based. The note with it: Acinetobacter baumannii, ATCC19606, read-out: MIC A. baumannii ATCC 19606.
The next assay has as its system E. coli ATCC 25922. Put plainly: MIC, broth microdilution. It is filed as cell-based. The conditions noted are these: Escherichia coli, ATCC25922, read-out: MIC E. coli ATCC 25922.
Another assay has as its system P. aeruginosa ATCC 27853. Description: MIC, broth microdilution. The conditions noted are these: Pseudomonas aeruginosa, ATCC27853, read-out: MIC P. aeruginosa ATCC 27853. It is filed as cell-based.
Assay [3] concerns E. spp. cloacae ATCC 13047. Put plainly: MIC, broth microdilution. The class given is cell-based. The conditions noted are these: read-out: MIC E. spp. cloacae ATCC 13047.
The next assay deals with E. faecalis ATCC 29212. Description: MIC, broth microdilution. The class given is cell-based. The note with it: Enterococcus faecalis, ATCC29212, read-out: MIC E. faecalis ATCC 29212.
The test system of the next assay is K. pneumoniae ATCC 10031. Description: MIC, broth microdilution. It is filed as cell-based. The conditions noted are these: Klebsiella pneumoniae, ATCC10031, read-out: MIC K. pneumoniae ATCC 10031.
The test system of the next assay is A. baumannii ATCC 17978. Description: MIC, broth microdilution. The conditions noted are these: Acinetobacter baumannii, ATCC17978, read-out: MIC A. baumannii ATCC 17978. It is filed as cell-based.
In assay [4] the test system is S. aureus ATCC 43300 (MRSA). Description: MIC, broth microdilution. The conditions noted are these: Staphylococcus aureus, ATCC43300|MRSA, read-out: MIC S. aureus ATCC 43300 (MRSA). It is filed as cell-based.
The mark [5] stands for this setting: read-out: RA (residual activity) E. coli topo IV.

Chain of E. coli topoisomerase IV (P20083 whole entry): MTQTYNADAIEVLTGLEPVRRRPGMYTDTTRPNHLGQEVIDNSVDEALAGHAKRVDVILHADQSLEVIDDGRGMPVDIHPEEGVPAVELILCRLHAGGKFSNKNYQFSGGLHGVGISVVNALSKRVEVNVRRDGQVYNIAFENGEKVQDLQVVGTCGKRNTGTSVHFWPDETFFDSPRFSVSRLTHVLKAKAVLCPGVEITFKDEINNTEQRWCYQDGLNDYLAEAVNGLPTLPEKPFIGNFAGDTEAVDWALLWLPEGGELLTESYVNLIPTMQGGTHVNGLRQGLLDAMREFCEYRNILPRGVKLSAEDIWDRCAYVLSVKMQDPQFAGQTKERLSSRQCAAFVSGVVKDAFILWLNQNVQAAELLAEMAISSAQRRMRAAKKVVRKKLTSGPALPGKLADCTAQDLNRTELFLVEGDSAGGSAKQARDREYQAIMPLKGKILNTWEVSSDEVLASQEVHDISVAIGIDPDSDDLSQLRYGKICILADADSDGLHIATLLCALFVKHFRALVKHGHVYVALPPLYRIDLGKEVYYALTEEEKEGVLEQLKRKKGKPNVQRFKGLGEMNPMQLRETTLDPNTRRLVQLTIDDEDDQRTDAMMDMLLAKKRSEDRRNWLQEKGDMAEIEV
Chain of E. coli topoisomerase IV (P0AFI2 whole entry partner): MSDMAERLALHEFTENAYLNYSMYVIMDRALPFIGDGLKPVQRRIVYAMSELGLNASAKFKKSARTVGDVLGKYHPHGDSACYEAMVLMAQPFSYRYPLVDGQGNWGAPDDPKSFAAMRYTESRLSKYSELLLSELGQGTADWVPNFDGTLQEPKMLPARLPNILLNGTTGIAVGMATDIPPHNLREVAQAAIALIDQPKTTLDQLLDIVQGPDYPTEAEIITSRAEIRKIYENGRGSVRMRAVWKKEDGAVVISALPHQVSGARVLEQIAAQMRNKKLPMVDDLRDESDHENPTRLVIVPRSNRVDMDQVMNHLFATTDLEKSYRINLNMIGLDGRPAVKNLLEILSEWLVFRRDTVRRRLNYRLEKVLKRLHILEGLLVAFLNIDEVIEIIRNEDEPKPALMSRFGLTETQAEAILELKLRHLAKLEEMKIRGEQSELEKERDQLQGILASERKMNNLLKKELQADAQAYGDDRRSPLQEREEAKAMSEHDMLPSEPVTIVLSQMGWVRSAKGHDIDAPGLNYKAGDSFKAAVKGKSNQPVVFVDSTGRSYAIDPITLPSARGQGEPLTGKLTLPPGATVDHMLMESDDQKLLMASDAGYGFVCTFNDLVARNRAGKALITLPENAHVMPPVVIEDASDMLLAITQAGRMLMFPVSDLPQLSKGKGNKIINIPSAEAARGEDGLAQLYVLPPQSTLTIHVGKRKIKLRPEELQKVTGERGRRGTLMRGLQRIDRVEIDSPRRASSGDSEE
Chain of human DNA topoisomerase IIα (P11388 whole entry): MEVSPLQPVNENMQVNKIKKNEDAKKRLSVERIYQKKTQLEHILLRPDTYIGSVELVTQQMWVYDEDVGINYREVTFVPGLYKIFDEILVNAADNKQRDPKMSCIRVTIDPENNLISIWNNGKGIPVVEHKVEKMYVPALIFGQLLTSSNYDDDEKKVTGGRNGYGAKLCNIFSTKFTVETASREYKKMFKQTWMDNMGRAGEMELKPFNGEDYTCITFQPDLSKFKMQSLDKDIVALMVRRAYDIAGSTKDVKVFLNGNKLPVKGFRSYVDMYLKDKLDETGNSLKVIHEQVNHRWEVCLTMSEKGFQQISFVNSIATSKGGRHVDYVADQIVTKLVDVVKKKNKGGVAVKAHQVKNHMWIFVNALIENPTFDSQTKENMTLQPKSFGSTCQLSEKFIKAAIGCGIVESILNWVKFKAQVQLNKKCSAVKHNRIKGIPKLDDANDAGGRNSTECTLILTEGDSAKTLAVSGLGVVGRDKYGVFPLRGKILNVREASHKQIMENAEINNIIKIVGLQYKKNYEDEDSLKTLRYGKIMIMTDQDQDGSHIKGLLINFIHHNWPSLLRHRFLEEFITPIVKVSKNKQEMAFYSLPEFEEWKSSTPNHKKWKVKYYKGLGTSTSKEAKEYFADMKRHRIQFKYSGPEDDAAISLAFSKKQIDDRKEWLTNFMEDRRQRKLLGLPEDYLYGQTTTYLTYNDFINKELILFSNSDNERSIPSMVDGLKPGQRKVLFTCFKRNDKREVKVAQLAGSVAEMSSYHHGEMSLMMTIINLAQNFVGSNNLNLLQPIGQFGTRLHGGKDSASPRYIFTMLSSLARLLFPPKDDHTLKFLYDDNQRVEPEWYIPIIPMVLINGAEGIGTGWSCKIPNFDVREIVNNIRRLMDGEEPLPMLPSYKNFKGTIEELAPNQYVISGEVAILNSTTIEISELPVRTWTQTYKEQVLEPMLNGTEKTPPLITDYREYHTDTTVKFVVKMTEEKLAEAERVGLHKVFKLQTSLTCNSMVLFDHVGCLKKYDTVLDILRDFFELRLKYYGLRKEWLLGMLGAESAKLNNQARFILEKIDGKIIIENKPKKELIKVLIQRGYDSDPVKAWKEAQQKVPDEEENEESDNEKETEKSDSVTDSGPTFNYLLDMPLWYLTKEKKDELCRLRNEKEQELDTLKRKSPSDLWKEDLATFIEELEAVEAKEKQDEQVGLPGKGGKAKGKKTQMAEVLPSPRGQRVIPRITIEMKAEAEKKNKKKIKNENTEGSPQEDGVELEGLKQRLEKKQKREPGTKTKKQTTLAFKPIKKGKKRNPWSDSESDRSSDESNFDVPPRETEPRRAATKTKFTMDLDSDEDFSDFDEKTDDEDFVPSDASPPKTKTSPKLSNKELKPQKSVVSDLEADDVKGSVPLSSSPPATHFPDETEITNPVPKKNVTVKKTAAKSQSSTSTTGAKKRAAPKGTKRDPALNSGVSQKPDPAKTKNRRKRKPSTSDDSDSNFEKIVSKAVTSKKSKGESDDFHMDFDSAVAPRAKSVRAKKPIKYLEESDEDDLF

As to “4,5-Dibromo-N-(2-morpholino-4-(5-oxo-4,5-dihydro-1,3,4-oxadiazol-2-yl)phenyl)-1H-pyrrole-2-carboxamide [Compound 27a]”, at E. coli topoisomerase IV (at 1 μM compound), the “RA (residual activity) E. coli topo IV” value is 103% (1 μM). Besides, the “RA (residual activity) E. coli gyrase” value on E. coli DNA gyrase (at 10 μM compound) is listed as 98% (10 μM).

As for `Cc1[nH]c(C(=O)Nc2ccc(C(=O)NCC(=O)O)cc2N2CC[C@H](NC(=O)OC(C)(C)C)C2)c(Cl)c1Cl` [Compound 8b, (S)-(3-(3-((tert-Butoxycarbonyl)amino)pyrrolidin-1-yl)-4-(3,4-dichloro-5-methyl-1H-pyrrole-2-carboxamido)benzoyl)glycine], half-maximal inhibition on E. coli DNA gyrase (IC50) was put at 0.196 µM.

The compound `Cc1[nH]c(C(=O)Nc2ccc(C(=O)NCC(=O)O)cc2N2CC[C@@H](NC(=O)OC(C)(C)C)C2)c(Cl)c1Cl` [Compound 8c, (R)-(3-(3-((tert-Butoxycarbonyl)amino)pyrrolidin-1-yl)-4-(3,4-dichloro-5-methyl-1H-pyrrole-2-carboxamido)benzoyl)glycine] yielded an IC50 on E. coli DNA gyrase of 0.162 µM.

Consider `CC(C)(C)OC(=O)N1CCN(c2cc(C(=O)NCC(=O)O)ccc2NC(=O)c2cc(Br)c(Br)[nH]2)CC1` [Compound 9a, (3-(4-(tert-Butoxycarbonyl)piperazin-1-yl)-4-(4,5-dibromo-1H-pyrrole-2-carboxamido)benzoyl)glycine], for which half-maximal inhibition at E. coli DNA gyrase (IC50) was put at 0.362 µM.

With `CC(C)(C)OC(=O)N[C@H]1CCN(c2cc(C(=O)NCC(=O)O)ccc2NC(=O)c2cc(Br)c(Br)[nH]2)C1` [Compound 9b, (S)-(3-(3-((tert-Butoxycarbonyl)amino)pyrrolidin-1-yl)-4-(4,5-dibromo-1H-pyrrole-2-carboxamido)benzoyl)glycine], the IC50 against E. coli DNA gyrase came to 4.11 µM. This IC50 lies about 11-fold higher than the previous one.

`CC(C)(C)OC(=O)N[C@@H]1CCN(c2cc(C(=O)NCC(=O)O)ccc2NC(=O)c2cc(Br)c(Br)[nH]2)C1` [Compound 9c, (R)-(3-(3-((tert-Butoxycarbonyl)amino)pyrrolidin-1-yl)-4-(4,5-dibromo-1H-pyrrole-2-carboxamido)benzoyl)glycine] gave an IC50 at E. coli DNA gyrase of 5.39 µM.

For `Cc1[nH]c(C(=O)Nc2ccc(C(=O)NCC(=O)O)cc2N2CCNCC2)c(Cl)c1Cl` [Compound 10a, 4-(5-((Carboxymethyl)carbamoyl)-2-(3,4-dichloro-5-methyl-1H-pyrrole-2-carboxamido)phenyl)piperazin-1-ium chloride], at E. coli topoisomerase IV (setting [5]), the remaining activity at 1 µM is 93%. For the same compound, the remaining activity at 10 µM in assay [1] was determined as 78%.

For the compound `Cc1[nH]c(C(=O)Nc2ccc(C(=O)NCC(=O)O)cc2N2CC[C@@H](N)C2)c(Cl)c1Cl` [Compound 10c, (R)-1-(5-((Carboxymethyl)carbamoyl)-2-(3,4-dichloro-5-methyl-1H-pyrrole-2-carboxamido)phenyl)pyrrolidin-3-aminium chloride], at E. coli DNA gyrase, the IC50 was ~0.02 µM. Also, the remaining activity at 40 µM in assay [1] came out at 112%.

As for `O=C(O)CNC(=O)c1ccc(NC(=O)c2cc(Br)c(Br)[nH]2)c(N2CCNCC2)c1` [Compound 11a, 4-(5-((Carboxymethyl)carbamoyl)-2-(4,5-dibromo-1H-pyrrole-2-carboxamido)phenyl)piperazin-1-ium chloride], the remaining activity at 40 µM in [1] is 100%.

As to `N[C@H]1CCN(c2cc(C(=O)NCC(=O)O)ccc2NC(=O)c2cc(Br)c(Br)[nH]2)C1` [Compound 11b, (S)-1-(5-((Carboxymethyl)carbamoyl)-2-(4,5-dibromo-1H-pyrrole-2-carboxamido)phenyl)pyrrolidin-3-aminium chloride], it took 0.235 µM to reach half-maximal inhibition against E. coli DNA gyrase (IC50).

In the case of `N[C@@H]1CCN(c2cc(C(=O)NCC(=O)O)ccc2NC(=O)c2cc(Br)c(Br)[nH]2)C1` [Compound 11c, (R)-1-(5-((Carboxymethyl)carbamoyl)-2-(4,5-dibromo-1H-pyrrole-2-carboxamido)phenyl)pyrrolidin-3-aminium chloride], the remaining activity at 10 µM on E. coli topoisomerase IV (setting [5]) was determined as 75%. This compound also had an IC50 against E. coli DNA gyrase of 0.996 µM.

On to `Cc1[nH]c(C(=O)Nc2ccc(C(=O)NCc3n[nH]c(=O)o3)cc2N2CCN(C(=O)OC(C)(C)C)CC2)c(Cl)c1Cl` [Compound 13, tert-Butyl 4-(2-(3,4-dichloro-5-methyl-1H-pyrrole-2-carboxamido)-5-(((5-oxo-4,5-dihydro-1,3,4-oxadiazol-2-yl)methyl)carbamoyl)phenyl)piperazine-1-carboxylate], for which the MIC in the assay with S. aureus ATCC 29213 was 1 µg/mL (≈ 1.68 µM). This compound gave an IC50 against E. coli DNA gyrase of 0.483 µM.

On to `Cc1[nH]c(C(=O)Nc2ccc(C(=O)NCc3n[nH]c(=O)o3)cc2N2CCNCC2)c(Cl)c1Cl` [Compound 14, 4-(2-(3,4-Dichloro-5-methyl-1H-pyrrole-2-carboxamido)-5-(((5-oxo-4,5-dihydro-1,3,4-oxadiazol-2-yl)methyl)carbamoyl)phenyl)piperazin-1-ium chloride], for which, on E. coli DNA gyrase, the IC50 was ~0.02 µM. Besides, the remaining activity at 10 µM in assay [1] was found to be 111%.

For `Cc1[nH]c(C(=O)Nc2ccc(C(=O)O)cc2N2CCC[C@H](NC(=O)OC(C)(C)C)C2)c(Cl)c1Cl` [Compound 18c, (S)-3-(3-((tert-Butoxycarbonyl)amino)piperidin-1-yl)-4-(3,4-dichloro-5-methyl-1H-pyrrole-2-carboxamido)benzoic acid], the MIC (in [2]; in the assay with K. aerogenes ATCC 13408; in the assay on A. baumannii ATCC 19606; with E. coli ATCC 25922; in the assay with P. aeruginosa ATCC 27853) was > 32 µg/mL in each case. Further, the remaining activity at 1 µM at E. coli DNA gyrase turned out to be 67%.

Regarding `Cc1[nH]c(C(=O)Nc2ccc(C(=O)O)cc2N2CCCC(CNC(=O)OC(C)(C)C)C2)c(Cl)c1Cl` (stereo not drawn) [Compound 18i, 3-(3-(((tert-Butoxycarbonyl)amino)methyl)piperidin-1-yl)-4-(3,4-dichloro-5-methyl-1H-pyrrole-2-carboxamido)benzoic acid], the MIC (in [2]; in the assay with K. aerogenes ATCC 13408; in the assay with A. baumannii ATCC 19606; with E. coli ATCC 25922; in the assay on P. aeruginosa ATCC 27853) was > 32 µg/mL in each case. Moreover, the remaining activity at 0.1 µM on E. coli DNA gyrase amounted to 89%. Also, the remaining activity at 100 µM in assay [1] stood at 128%.

On to `Cc1[nH]c(C(=O)Nc2ccc(-c3n[nH]c(=O)o3)cc2N2CCN(C(=O)OC(C)(C)C)CC2)c(Cl)c1Cl` [Compound 22a, tert-Butyl 4-(2-(3,4-dichloro-5-methyl-1H-pyrrole-2-carboxamido)-5-(5-oxo-4,5-dihydro-1,3,4-oxadiazol-2-yl)phenyl)piperazine-1-carboxylate], for which the remaining activity at 1 µM at E. coli topoisomerase IV (setting [5]) was determined as 104%. This compound also showed an IC50 against E. coli DNA gyrase of 0.059 µM. Also, the remaining activity at 100 µM in assay [1] was determined as 100%.

On to `Cc1[nH]c(C(=O)Nc2ccc(-c3n[nH]c(=O)o3)cc2N2CCC[C@H](NC(=O)OC(C)(C)C)C2)c(Cl)c1Cl` [Compound 22c, tert-Butyl (S)-(1-(2-(3,4-dichloro-5-methyl-1H-pyrrole-2-carboxamido)-5-(5-oxo-4,5-dihydro-1,3,4-oxadiazol-2-yl)phenyl)piperidin-3-yl)carbamate], for which the MIC in the assay on S. aureus ATCC 29213 is 32 µg/mL (≈ 58 µM); in assay [2] it was > 32 µg/mL; in the assay with K. aerogenes ATCC 13408, > 32 µg/mL; with A. baumannii ATCC 19606, > 32 µg/mL; in the assay on E. coli ATCC 25922, > 32 µg/mL; in the assay on P. aeruginosa ATCC 27853, > 32 µg/mL. Besides, the remaining activity at 0.1 µM on E. coli DNA gyrase worked out at 90%.

As to `Cc1[nH]c(C(=O)Nc2ccc(-c3n[nH]c(=O)o3)cc2N2CCOC(C)C2)c(Cl)c1Cl` (stereo not drawn) [Compound 22f, 3,4-Dichloro-5-methyl-N-(2-(2-methylmorpholino)-4-(5-oxo-4,5-dihydro-1,3,4-oxadiazol-2-yl)phenyl)-1H-pyrrole-2-carboxamide], the MIC in [3] is > 64 µg/mL; with S. aureus ATCC 29213, > 64 µg/mL; in the assay on E. faecalis ATCC 29212 it was 1 µg/mL (≈ 2.21 µM); in the assay with K. pneumoniae ATCC 10031, > 64 µg/mL; in the assay with A. baumannii ATCC 17978, > 64 µg/mL; in the assay on E. coli ATCC 25922 it was > 64 µg/mL. Further, the minimal inhibitory concentration (MIC) (in the assay on P. aeruginosa ATCC 27853; in assay [4]) was > 64 µg/mL in each case. In addition, the remaining activity at 100 µM in [1] stood at 98%.

On to `Cc1[nH]c(C(=O)Nc2ccc(-c3n[nH]c(=O)o3)cc2N2CC(C)OC(C)C2)c(Cl)c1Cl` (stereo not drawn) [Compound 22g, 3,4-Dichloro-N-(2-(2,6-dimethylmorpholino)-4-(5-oxo-4,5-dihydro-1,3,4-oxadiazol-2-yl)phenyl)-5-methyl-1H-pyrrole-2-carboxamide], for which, in [1], the remaining activity at 100 µM is 97%.

Take `Cc1[nH]c(C(=O)N(Cc2ccccc2)c2ccc(-c3n[nH]c(=O)o3)cc2)c(Cl)c1Cl` [Compound 33, N-Benzyl-3,4-dichloro-5-methyl-N-(4-(5-oxo-4,5-dihydro-1,3,4-oxadiazol-2-yl)phenyl)-1H-pyrrole-2-carboxamide]: at E. coli DNA gyrase, the remaining activity at 1 µM was 81%. The remaining activity at 100 µM in assay [1] is 92%.
